Test results taken from PubChem BioAssay (NCI).
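A five-concentration, 48-hour dose response in 96-well plates underlies each endpoint, interpolated linearly between surrounding concentrations. TGI marks complete inhibition of growth.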

Tests used:
Experiment in all cases: NCI tumour cell line growth inhibition, 48 h
[1] = test system: M19-MEL melanoma
[2] = test system: DMS 114 small cell lung
[3] = test system: HOP-62 NSCLC
[4] = test system: UACC-62 melanoma
[5] = test system: LXFL 529 NSCLC
[6] = test system: UO-31 renal
[7] = test system: COLO 205 colon
[8] = test system: CCRF-CEM leukemia
[9] = test system: IGROV1 ovarian
[10] = test system: OVCAR-8 ovarian
[11] = test system: DMS 273 small cell lung
[12] = test system: SK-MEL-5 melanoma
[13] = test system: DLD-1 colon
[14] = test system: OVCAR-4 ovarian
[15] = test system: UACC-257 melanoma
[16] = test system: KM20L2 colon
[17] = test system: SN12C renal
[18] = test system: A549 NSCLC
[19] = test system: XF 498 CNS
[20] = test system: HCC-2998 colon
[21] = test system: HCT-15 colon
[22] = test system: K-562 leukemia
[23] = test system: LOX IMVI melanoma
[24] = test system: MALME-3M melanoma
[25] = test system: KM12 colon
[26] = test system: HCT-116 colon
[27] = test system: HL-60(TB) leukemia
[28] = test system: 786-0 renal
[29] = test system: RPMI-8226 leukemia
[30] = test system: SF-268 CNS
[31] = test system: ACHN renal
[32] = test system: U251 CNS
[33] = test system: SNB-75 CNS
[34] = test system: CAKI-1 renal
[35] = test system: SF-539 CNS
[36] = test system: SNB-19 CNS
[37] = test system: NCI-H522 lung
[38] = test system: SR leukemia
[39] = test system: M14 melanoma
[40] = test system: MOLT-4 leukemia
[41] = test system: SK-MEL-2 melanoma
[42] = test system: SW-620 colon
[43] = test system: NCI-H226 lung
[44] = test system: EKVX NSCLC
[45] = test system: RXF 393 renal
[46] = test system: HT29 colon
[47] = test system: A498 renal
[48] = test system: NCI-H460 lung
[49] = test system: SF-295 CNS
[50] = test system: OVCAR-5 ovarian
[51] = test system: TK-10 renal
[52] = test system: SK-OV-3 ovarian
[53] = test system: NCI-H23 lung
[54] = test system: OVCAR-3 ovarian
[55] = test system: HOP-92 NSCLC
[56] = test system: HOP-18 NSCLC
[57] = test system: SK-MEL-28 melanoma
[58] = test system: SNB-78 CNS
[59] = test system: RXF-631 renal

Measured: TGI

N=C(N)/N=C(/C=C/c1ccccc1)CC1OC(=O)c2ccccc21 (stereo unspecified)
> 100 µM: [1] | [2] | [3] | [4] | [5] | [6] | [7] | [8] | [9] | [10] | [11] | [12] | [13] | [14] | [15] | [16] | [17] | [18] | [19] | [20] | [21] | [22] | [23] | [24] | [25] | [26] | [27] | [28] | [29] | [30] | [31] | [32] | [33] | [34] | [35] | [36] | [37] | [38] | [39] | [40] | [41] | [42] | [43] | [44] | [45] | [46] | [47] | [48]

Cc1cccc(C)c1NC(=O)CCC(=O)NNC(=O)c1cc(O)c2ccccc2c1
78.2 µM: [35]
88 µM: [53]
71.3 µM: [4]
3.78 µM: [47]
87.6 µM: [49]
49 µM: [7]
65.2 µM: [2]
84.6 µM: [12]
72.5 µM: [8]
87.4 µM: [10]
82.3 µM: [37]
95.2 µM: [27]
> 100 µM: [1] | [3] | [5] | [6] | [9] | [50] | [13] | [51] | [15] | [16] | [17] | [18] | [19] | [20] | [21] | [52] | [22] | [23] | [24] | [54] | [25] | [26] | [28] | [29] | [30] | [31] | [32] | [55] | [33] | [34] | [36] | [56] | [38] | [39] | [57] | [40] | [42] | [43] | [44] | [45] | [46] | [48]

COC(=O)OCC1OC(N2C(=O)NC(=O)C(I)C2N=[N+]=[N-])CC1OC(=O)OC (stereo unspecified)
> 100 µM: [1] | [3] | [4] | [58] | [5] | [6] | [7] | [8] | [9] | [10] | [49] | [50] | [11] | [12] | [13] | [59] | [51] | [14] | [15] | [16] | [17] | [18] | [19] | [20] | [21] | [52] | [22] | [23] | [24] | [53] | [54] | [25] | [26] | [27] | [28] | [29] | [30] | [31] | [32] | [55] | [33] | [34] | [35] | [36] | [37] | [38] | [39] | [57] | [40] | [42] | [43] | [45] | [46] | [48]

CCCCCCC1CCC2CCCC(C)N12 (stereo unspecified)
53.9 µM: [29]
38.2 µM: [27]
31.1 µM: [42]
76.9 µM: [39]
34.1 µM: [7]
89.6 µM: [21]
59.8 µM: [48]
> 100 µM: [1] | [2] | [3] | [4] | [6] | [10] | [49] | [11] | [12] | [51] | [14] | [15] | [16] | [17] | [18] | [54] | [25] | [26] | [28] | [30] | [31] | [32] | [55] | [33] | [34] | [35] | [36] | [56] | [37] | [57] | [43] | [44]
47.1 µM: [40]
69.2 µM: [41]
45.6 µM: [20]
62 µM: [8]
> 10 µM: [5] | [24] | [46]
97.4 µM: [53]
36.1 µM: [19]
58.4 µM: [38]
35.3 µM: [22]
